In PMC12538275, “Fat or flat? The impact of dipole moment vectors on non-covalent interactions between aromatic tags and macromolecules” (Inorganic Chemistry Frontiers, 2025):

Columns and labels:
[1] = tested on: newly transformed schistosomula (NTS) of S. mansoni; assay: Phenotypic assay with newly transformed schistosomula (NTS); type: cell-based, Schistosoma mansoni; details: for Severity score: scale 0 (no effect) to 4 (most severe); for anti-schistosomal effect against NTS (in words): 1 and 10 μM, three days
Experimental: Newly transformed schistosomula (NTS) of S. mansoni were prepared by mechanically transforming infective larvae (cercariae) as described previously.[47,57] NTS (200–300 parasites) were incubated in flat-bottomed 96-well plates in 200 μL of Basch medium 169[60] containing 5% FBS (ThermoFisher Scientific), 100 U mL^−1 penicillin and 100 μg mL^−1 streptomycin (ThermoFisher Scientific), at 5% CO2 and 37 °C.[61,62] Inhibitors were added at final concentration of 1 or 10 μM,[43,47] and changes in phenotype were observed every 24 h for up to 72 h. A constrained nomenclature of ‘descriptors’[49,57] is used to record the multiple and dynamic changes in movement, shape and translucence that the schistosome parasite is capable of (Fig. S1). These descriptors are then converted into an ordinal ‘severity score’ system from 0 (no effect) to 4 (maximum effect), which allows for the relative comparison of compound effects, as described previously.[63]

[2] = biological target: SmCB1 (Schistosoma mansoni, UniProt Q8MNY2, T185A/T300A); assay: biochemical; details: for Ki SmCB1: kinetic activity assay, triplicate, pH 5.5, 37 °C
Source text: (§1) Enzymatic activity was monitored either fluorometrically with peptide–AMC substrates, which release 7-amino-4-methylcoumarin (AMC) as a fluorescent product, or spectrophotometrically with peptide–pNA substrates, which liberate p-nitroaniline (pNA). Reaction rates were obtained from the slopes of the linear progress curves and expressed as relative fluorescence units per second (RFU s^−1) or as absorbance units per second (AU s^−1). […] The standard errors of measurements refer to the non-linear regression analysis.
(§2) A non-glycosylated mutant of the SmCB1 zymogen was expressed in the yeast Pichia pastoris, activated by S. mansoni legumain and purified as described previously.[25,43,58] Kinetic measurements were performed in triplicate in 96-well microplates (100 μL assay volume) at 37 °C. […] Substrate hydrolysis was measured fluorometrically in an Infinite M1000 microplate reader (Tecan) at excitation and emission wavelengths of 360 and 465 nm, respectively. Inhibition assays for human cathepsins and cruzain are described in Supplemental Experimental Procedures.

[3] = biological target: T1, human cathepsin B (Homo sapiens, UniProt P07858); assay: Cathepsin B inhibition assay with chromogenic substrate Cbz-Arg-Arg-pNA; type: biochemical; details: kinetic activity assay; for Ki: read-out: Ki Cat B
T1 construct: purchased Calbiochem
Source text: as §1
(§3) Enzymatic Assay Materials
(§4) Human cathepsin B was purchased from Calbiochem, and human cathepsins K, L, and S from Enzo. […]
(§5) Stock solutions of the […]
inhibitors and substrates were prepared in DMSO.
Cathepsin B Inhibition Assay
Kinetic measurements were performed in duplicate in cuvettes (1 mL assay volume) at 37 °C, as described.18-20 Human cathepsin B was activated by a 1:500 dilution with assay buffer (100 mM sodium phosphate, pH 6.0, 100 mM NaCl, 5 mM EDTA, 0.01% Brij 35) containing 5 mM DTT and then incubated at 37 °C for 30 min.
Into a cuvette containing 960 µL assay buffer, 5 µL of the chromogenic substrate Cbz-Arg-Arg-pNA, DMSO and inhibitor solution (15 µL) were pipetted. After addition of cathepsin B (20 µL), substrate hydrolysis was measured spectrophotometrically in a VARIAN/Bio-50/100 photometer at 405 nm for 20 min. […]

[4] = set-up: method as in doi:10.1135/cccc20011375; details: cited from earlier work
[5] = biological target: T2, cruzain (Trypanosoma cruzi, UniProt P25779); assay: Cruzain inhibition assay; type: biochemical; details: duplicate measurements
T2 construct: Recombinant cruzain, consisting of the catalytic domain without the C-terminal extension; made in house
T2 sequence (P25779 123-337 limits assumed): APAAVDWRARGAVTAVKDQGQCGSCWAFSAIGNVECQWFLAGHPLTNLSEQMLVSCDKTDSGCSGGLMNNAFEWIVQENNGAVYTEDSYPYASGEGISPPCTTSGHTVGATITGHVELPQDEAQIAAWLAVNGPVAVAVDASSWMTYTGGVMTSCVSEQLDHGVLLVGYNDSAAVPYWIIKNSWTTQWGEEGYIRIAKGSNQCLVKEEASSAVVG
Source text: as §1
Enzymatic Assay Materials […]
Recombinant cruzain, consisting of the catalytic domain without the C-terminal extension, was expressed and purified as described previously.16,17 All substrates were purchased from Bachem. Stock solutions of the inhibitors and substrates were prepared in DMSO. […]
Kinetic measurements were performed in duplicate with a fluorometric assay (Biotek SynergyTM HT) using Corning 96-well black microplates (200 µL assay volume) at 25 °C. Recombinant cruzain was incubated in 100 mM sodium acetate, pH 5.5, 5 mM DTT, 0.01 % Triton X-100 for 20 min, followed by an additional 2 min incubation with inhibitors before the reaction was started by the addition of the fluorogenic substrate Cbz-Phe-Arg-AMC. Substrate hydrolysis was measured for 5 min fluorometrically at excitation and emission wavelengths of 360 and 460 nm, respectively. […]

[6] = biological target: T3, human cathepsin L (Homo sapiens, UniProt P07711); assay: Cathepsin L inhibition assay; type: biochemical; details: duplicate measurements; read-out: Ki cat L
T3 construct: Human isolated cathepsin L; purchased Enzo
T3 sequence (P07711 114-333): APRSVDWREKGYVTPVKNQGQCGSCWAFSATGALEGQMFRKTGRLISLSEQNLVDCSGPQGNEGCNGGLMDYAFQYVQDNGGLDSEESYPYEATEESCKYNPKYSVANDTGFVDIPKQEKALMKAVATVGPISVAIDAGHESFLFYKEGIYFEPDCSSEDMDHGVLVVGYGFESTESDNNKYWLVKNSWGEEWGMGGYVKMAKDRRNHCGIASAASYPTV
Experimental: Cathepsin L Inhibition Assay
Kinetic measurements were performed in duplicate in cuvettes (1 mL assay volume) at 37 °C, as described.18-20 Human isolated cathepsin L was activated by a 1:100 dilution with assay buffer (100 mM sodium phosphate buffer, pH 6.0, 100 mM NaCl, 5 mM EDTA, 0.01% Brij 35) containing 5 mM DTT, and then incubated at 37 °C for 30 min. Into a cuvette containing 940 µL assay buffer, 10 µL of the chromogenic substrate Cbz-Phe-Arg-pNA, DMSO and inhibitor solution (10 µL) were pipetted. After the addition of cathepsin L (40 µL), substrate hydrolysis was measured for 20 min spectrophotometrically in a VARIAN/Bio-50/100 photometer at 405 nm. […]
Arg-AMC, cathepsin S and DMSO were 40 µM (= 0.74 × Km), 42 ng mL-1 and 2%, respectively. […]

[7] = biological target: T4, human cathepsin K (Homo sapiens, UniProt P43235); assay: Cathepsin K inhibition assay; type: biochemical; details: duplicate measurements; read-out: Ki cat K
T4 construct: purchased Enzo
T4 sequence (P43235 115-329): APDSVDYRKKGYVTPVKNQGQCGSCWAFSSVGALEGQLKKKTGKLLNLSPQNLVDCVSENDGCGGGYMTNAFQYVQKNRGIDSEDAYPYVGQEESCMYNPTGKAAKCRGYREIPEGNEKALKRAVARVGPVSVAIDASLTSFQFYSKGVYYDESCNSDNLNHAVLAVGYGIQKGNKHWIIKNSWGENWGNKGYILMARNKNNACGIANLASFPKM
Source text: as §1, §3, §4, §5
inhibitors and substrates were prepared in DMSO. […]
Cathepsin K Inhibition Assay
Kinetic measurements were performed in duplicate in 96-well microplates (100 µL assay volume) at 25 °C, as described.18-20 Human recombinant cathepsin K was activated by a 1:100 dilution with assay buffer (100 mM sodium citrate, pH 5.0, 100 mM NaCl, 1 mM EDTA, 0.01% CHAPS) containing 5 mM DTT, and then incubated at 37 °C for 30 min. […] After addition of cathepsin K (2 µL), substrate hydrolysis was measured for 20 min fluorometrically in a FLUOSTAR Optima plate reader at excitation and emission wavelengths of 360 and 440 nm, respectively. […]

[8] = tested on: SmCB1; assay: biochemical; details: ratio of Ki values
Source text: as §1, §2

[9] = biological target: T5, human cathepsin S (Homo sapiens, UniProt P25774); assay: Cathepsin S inhibition assay; type: biochemical; details: duplicate measurements; read-out: Ki cat S
T5 construct: purchased Enzo
T5 sequence (P25774 115-331): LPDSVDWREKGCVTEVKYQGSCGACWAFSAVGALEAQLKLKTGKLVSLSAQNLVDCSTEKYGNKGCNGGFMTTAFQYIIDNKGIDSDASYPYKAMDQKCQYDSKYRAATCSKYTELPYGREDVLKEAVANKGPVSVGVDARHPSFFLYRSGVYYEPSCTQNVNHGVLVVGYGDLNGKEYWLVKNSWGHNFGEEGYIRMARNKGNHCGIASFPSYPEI
Experimental: Cathepsin S Inhibition Assay
Kinetic measurements were performed in duplicate in 96-well microplates (100 µL assay volume) at 25 °C, as described.18-20 Human recombinant cathepsin S was activated by 1:100 dilution with assay buffer (100 mM sodium citrate, pH 6.0 containing 50 mM NaCl, 2 mM EDTA, 0.01% Triton X-100) containing 5 mM DTT, and then incubated at 37 °C for 60 min. Into a well containing 184 µL assay buffer, 0.8 µL of the fluorogenic substrate Cbz-Phe-Arg-AMC, DMSO and inhibitor solution (3.2 µL) were pipetted. After addition of cathepsin S (12 µL), substrate hydrolysis was measured for 20 min fluorometrically on a FLUOSTAR Optima plate reader at excitation and emission wavelengths of 360 and 440 nm, respectively. The final concentrations of Cbz-Phe-Arg-AMC, cathepsin S and DMSO were 40 µM (= 0.74 × Km), 42 ng mL-1 and 2%, respectively. […]

**Q.** With 9-SH-closo-1,2-C2B10H11 [compound 2] as the compound, how does the Severity score ([1]; 1 μM, 24 h) read?
**A.** Its Severity score is 0.

**Q.** And the Severity score ([1]; 1 μM, 48 h)?
**A.** The Severity score was 0.

**Q.** And the Severity score ([1]; 1 μM, 72 h)?
**A.** Its Severity score is 0.

**Q.** What about the Severity score ([1]; 10 μM, 24 h) of the same compound?
**A.** The Severity score was 0.

**Q.** What about the Severity score ([1]; 10 μM, 48 h) of the same compound?
**A.** Its Severity score is 0.

**Q.** What about the Severity score ([1]; 10 μM, 72 h) of the same compound?
**A.** Its Severity score is 0.

**Q.** What about the “anti-schistosomal effect against NTS (in words)” value (shortened to “anti-schistosomal effect”) [1] of the same compound?
**A.** Its value is “ineffective”.

**Q.** And the “Ki SmCB1” value [2]?
**A.** Its value is “inactive”.

**Q.** And the “Ki Cat B” value [3]?
**A.** Its value is “weak inhibition”.

**Q.** What about the Ki [3] of the same compound?
**A.** The Ki was 43.8 ± 5.6 µM.

**Q.** With 9-phenyl ortho-carborane as the compound, how does the dipole moment [4] read?
**A.** Its dipole moment is 5.0 D.

**Q.** What does the source list for `N#CC1(NC(=O)[C@H](Cc2cccc(Cl)c2)NC(=O)CSc2ccccc2)CC1` [5a]?
**A.** Ki [5]: 460 ± 10 nM; Ki [6]: 370 ± 20 nM; Severity score ([1]; 1 μM, 24 h): 0; Severity score ([1]; 1 μM, 48 h): 0; Severity score ([1]; 1 μM, 72 h): 0; Severity score ([1]; 10 μM, 24 h): 0; Severity score ([1]; 10 μM, 48 h): 0; Severity score ([1]; 10 μM, 72 h): 0; anti-schistosomal effect against NTS (in words) [1]: ineffective; Ki [7]: 1410 ± 260 nM; Selectivity Ki (cat B)/Ki (SmCB1) [8]: 0.5; Ki [2]: 14.3 ± 2.4 µM; Ki [9]: 210 ± 30 nM; Ki [3]: 6.8 ± 0.5 µM

**Q.** With `CC(C)(C)OC(=O)N[C@@H](Cc1cccc(Cl)c1)C(=O)NC1(C#N)CC1` [compound 4] as the compound, how does the Ki [5] read?
**A.** Its Ki is 750 ± 20 nM.

**Q.** What about the Ki [6] of the same compound?
**A.** Its Ki is 250 ± 20 nM.

**Q.** And the Severity score ([1]; 1 μM, 24 h)?
**A.** Its Severity score is 0.

**Q.** And the Severity score ([1]; 1 μM, 48 h)?
**A.** The Severity score was 0.

**Q.** And the Severity score ([1]; 1 μM, 72 h)?
**A.** The Severity score was 0.

**Q.** And the Severity score ([1]; 10 μM, 24 h)?
**A.** The Severity score was 0.

**Q.** What about the Severity score ([1]; 10 μM, 48 h) of the same compound?
**A.** The Severity score was 0.

**Q.** What about the Severity score ([1]; 10 μM, 72 h) of the same compound?
**A.** The Severity score was 0.

**Q.** What about the “anti-schistosomal effect” value [1] of the same compound?
**A.** Its value is “ineffective”.

**Q.** And the Ki [7]?
**A.** The Ki was 1850 ± 230 nM.

**Q.** What about the Ki [2] of the same compound?
**A.** Its Ki is 27.1 ± 3.2 µM.

**Q.** And the Ki [9]?
**A.** The Ki was 96 ± 9 nM.

**Q.** And the Ki [3]?
**A.** Its Ki is 15.5 ± 1.7 µM.

**Q.** For “closo-1,2-C2B10H12 [compound 1, reference compound]”, which dipole moment [4] is on record?
**A.** Its dipole moment is 4.5 D.

**Q.** And the Severity score ([1]; 1 μM, 24 h)?
**A.** Its Severity score is 0.

**Q.** And the Severity score ([1]; 1 μM, 48 h)?
**A.** Its Severity score is 0.

**Q.** What about the Severity score ([1]; 1 μM, 72 h) of the same compound?
**A.** Its Severity score is 0.

**Q.** What about the Severity score ([1]; 10 μM, 24 h) of the same compound?
**A.** The Severity score was 0.

**Q.** What about the Severity score ([1]; 10 μM, 48 h) of the same compound?
**A.** Its Severity score is 0.

**Q.** And the Severity score ([1]; 10 μM, 72 h)?
**A.** The Severity score was 0.

**Q.** What about the “anti-schistosomal effect” value [1] of the same compound?
**A.** Its value is “ineffective”.

**Q.** And the “Ki SmCB1” value [2]?
**A.** Its value is “inactive”.

**Q.** And the “Ki Cat B” value [3]?
**A.** Its value is “inactive”.

**Q.** And the Ki [3]?
**A.** The Ki was over 100 µM.
